Where “and” joins values, the source holds several entries; their conditions need not be identical. Equal values may be shown once.
Tests used:
[1] = Pharmacokinetics and brain distribution after multiple-dose s.c. administration; type: in vivo, p21 naïve male C57Bl/6J mice
Description: Dosing route and concentration were similar to what we proposed to do for treatment for the current study. Terminal blood samples were collected in heparinized tubes through the posterior vena cava and centrifuged to obtain plasma (n = 3 per time point). Whole brain samples were harvested after transcardial perfusion with saline, immediately flash frozen in liquid nitrogen, and stored at -80°C until analysis.

gelatinase activity = test: In situ zymography (DQ-gelatin) of brain sections after TBI at p21; type: in vivo, mouse; settings: 25 mg/kg s.c. at 2, 4, 24 and 48 h post-injury; brains 1 h after last injection
Description: The treatment regime was based upon several considerations. […] Thirdly, we limited treatment to a period of 48 h post-injury in order to minimize potential off-target effects on ongoing brain development processes at this time, given the known roles that these gelatinases play in postnatal synaptic maturation. For acute studies (gelatin zymography and histology) animals were euthanized at 4 hours and for in situ zymography, they were euthanized 1 hour after the last injection. For long-term studies (behavioral and cognitive assessments and histology) animals were euthanized at ~2 months post-injury. Euthanasia was by overdose with 2.5% Avertin i.p. followed by decapitation or cardiac transperfusion as described below.
One hour after the last injection, brains were collected and embedded in optimal cutting temperature medium (OCT, Tissue-Tek, CA). The tissue blocks were cryosectioned at 10μm thickness and subjected to in-situ zymography, as described by Oh et al.. Briefly, the sectioned tissues were stained with DQ-gelatin (Molecular Probes, Inc., OR, USA) to detect gelatinase activity, followed by incubation with DAPI solution to detect nuclei. […]

[2] = 25 mg/kg s.c. at 0, 2 and 24 h, p21 mice
[3] = 0.5 h after final dose, 25 mg/kg s.c. at 0, 2 and 24 h, p21 mice
[4] = 1 h after final dose, 25 mg/kg s.c. at 0, 2 and 24 h, p21 mice
[5] = 2 h after final dose, 25 mg/kg s.c. at 0, 2 and 24 h, p21 mice

## O=S(=O)(CC1CS1)c1ccc(Oc2ccc(O)cc2)cc1 (stereo not shown) [p-OH SB-3CT]
[1]; [2]
  AUC 0-last, brain: 189 pmol·min/mg
  AUC 0-last, plasma: 273 µM·min
  AUC 0-∞, brain: 191 pmol·min/mg
  AUC 0-∞, plasma: 276 µM·min
  Brain AUC /Plasma AUC: 0.693
[1]; [3]
  Brain concentration: 4.67 ± 1.60 pmol/mg tissue
  Plasma concentration: 6.49 ± 4.49 µM
[1]; 30 min after final dose, assuming a density of 1 g/mL
  peak brain level expressed as concentration: 4.67 µM
[1]; [4]
  Brain concentration: 0.905 ± 1.09 pmol/mg tissue
  Plasma concentration: 1.66 ± 1.82 µM
[1]; [5]
  Brain concentration: 0.0772 ± 0.0211 pmol/mg tissue
  Plasma concentration: 0.122 ± 0.0762 µM
[1]; 4 h after final dose, 25 mg/kg s.c. at 0, 2 and 24 h, p21 mice, 25 mg/kg
  Brain concentration: 0.0209 ± 0.0058 pmol/mg tissue and 0.0209 ± 0.00578 pmol/mg tissue
[1]; s.c., after the final dose
  time to peak concentration in brain: 30 min
  time to peak concentration in plasma: 30 min
Gelatinase activity
  gelatinase activity post-injury (in situ zymography) compared to vehicle control: attenuated gelatinase activity
